Reference: patent publication EP4549575A1 (priority 2023, dated 2025)
“Also recorded” adds a separate entry of the source. Like-named read-outs stand apart in the source and are kept apart here. Square brackets hold non-standard residues; d marks the D form. Ends that are not written are not given here. Peptide text beside a SMILES is read from it. βAla = NCCC(=O)O

Experiments:
P. infestans [1] = assay type: cell-based; conditions: for PPI: solid medium, linear vs cyclic peptides (Figure 8); for PPI (%) ± dev. std (Solid medium): peptide 200 µM, PAM agar, mycelium plug, 3-4 days, vs untreated control
P. infestans [2] = assay type: in vivo; conditions: tomato (Solanum lycopersicum, cv. Marmande) leaf discs; co-inoculation with sporangia; 5-7 days; reference concentration 200 µM
Escherichia coli DH5α = test: Specificity: growth in liquid culture (OD620); assay type: cell-based; conditions: 200 µM; LB medium; measured hourly up to 5 h
Protocol: (§1) The specificity of antimicrobial molecules is a key aspect in their development, as good degrees of specificity result in the absence of toxicity to other organisms in the environment such as animals, plants, fungi, bacteria, yeasts, livestock and humans. Therefore, initial assays were carried out to assess the toxicity profiles of CP20 and CP32, similar to those reported in Colombo et al.. For this purpose, the two cyclic peptides were added at a concentration of 200 µM to liquid cultures of the following microorganism species: • (i) Agrobacterium tumefaciens GV3101, (ii) Escherichia coli DH5α and (iii) Saccharomyces cerevisiae. The culture media used were respectively Luria-Bertani (LB) for the bacterial cultures, while Yeast Extract Peptone Dextrose (YEPD) medium was used for S. cerevisiae. Growth was measured hourly (up to 5 h) using a spectrophotometer (OD620).

Saccharomyces cerevisiae = test: Specificity: growth in liquid culture (OD620); assay type: cell-based; conditions: 200 µM; YEPD medium; measured hourly up to 5 h
Protocol: as §1

pronase [3] = test: Stability towards proteolysis (pronase, LC-MS); assay type: in vitro ADME, Streptomyces griseus; conditions: peptide 200 µM, protease 5 µg/mL, 37°C, pH 7.5; for stability against proteolysis: 0-2 h
Protocol: The evaluation of the stability of CP20 and Ac-LP20 towards proteolysis was tested at a peptide concentration of 200 µM using pronase (commercially available mixture of proteases isolated from the extracellular fluid of Streptomyces griseus, 2.5 µg/mg). Another peptide was added to this analysis, namely LP20 (without N-terminal acetylation), as it is easier to synthesize and to also assess the influence of N-terminal acetylation on the stability of LP20. Each peptide was tested in the presence of the protease (5 µg/mL) at 37°C in a buffer solution (50 mM Tris, 10 mM CaCl2, 150 mM NaCl, 0.05 % (w/v) Brij 35, pH 7.5) and its stability monitored by liquid chromatography coupled to mass spectrometry (LC-MS) at different time intervals (t=0 min, 10 min, 30 min, 1 h, 2 h). To stop enzyme activity, a small amount of the solution (60 µL) was transferred to an HPLC vial containing 6 µL of a 10% TFA solution at these different time points.

P. infestans [4] = conditions: for PGI (%) ± dev. std (Liquid medium): peptide 200 µM, Pea Broth, sporangia, OD620, 72 h, vs untreated control
[5] = Conformational studies based on circular dichroism; assay type: physicochemical
Protocol: Conformational studies based on circular dichroism were performed under different conditions, such as: • 10 mM phosphate buffer, pH 7 • MES buffer 10 mM, pH 6 • Buffer acetate 10 mM, pH 5 • Phosphate buffer 10 mM/TFE (1:1) • TFE (trifluoroethanol)
Conformational studies based on circular dichroism were performed under different conditions such as: • 10 mM phosphate buffer, pH7 • Phosphate buffer 10mM/TFE, pH7 (1:1) • TFE (trifluoroethanol)
Conformational studies based on circular dichroism were performed under different conditions, such as: • 10 mM phosphate buffer, pH7 • MES buffer 10 mM, pH6 • Buffer acetate 10 mM, pH5 • Phosphate buffer 10 mM/TFE, pH7 (1:1) • TFE (trifluoroethanol)
Conformational studies based on circular dichroism were performed under different conditions, such as: • 10 mM phosphate buffer, pH7 • 10mM phosphate buffer/TFE (1:1) • TFE (trifluoroethanol)

[6] = Chemical-physical properties (isoelectric point, net charge, solubility in water); assay type: physicochemical; conditions: for net charge: at pH 7
P. infestans [7] = assay type: cell-based; conditions: 10 mg/l; PAM agar; mycelium plug; 3-4 days; positive control
P. infestans [8] = assay type: cell-based; conditions: 10 mg/l; Pea Broth; sporangia; OD620, 72 h; positive control
P. capsici = assay type: cell-based, Phytophthora capsici Leonian
P. viticola = assay type: in vivo, Plasmopara viticola (Berk. et Curt.) Berl. and De Toni; conditions: grapevine (Vitis vinifera cv. Pinot noir) leaf discs; mean ± standard deviation vs untreated control; concentration not given
pronase [9] = test: pronase (commercially available mixture of proteases isolated from the extracellular fluid of Streptomyces griseus, 2.5 µg/mg) in buffer solution (50 mM Tris, 10 mM CaCl2, 150 mM NaCl, 0.05 % (w/v) Br); conditions: 37°C, up to 2 h
P. ultimum = assay type: cell-based, Pythium ultimum var. ultimum Trow; conditions: PDA agar, mycelium; mean ± standard deviation vs untreated control; concentration not given
[10] = from PGI values at 0.02-200 µM, three-parameter logistic model
[11] = pH 7-TFE: phosphate buffer 10 mM/TFE (1:1)

CC(C)C[C@@H]1NC(=O)[C@H](CCCNC(=N)N)NC(=O)CNC(=O)CCNC(=O)[C@H](C(C)C)NC(=O)[C@H](CCCNC(=N)N)NC(=O)[C@H](CC(C)C)NC(=O)[C@H](Cc2c[nH]c3ccccc23)NC(=O)[C@H](CCCNC(=N)N)NC1=O [CP32, βA-G-R-L-R-W-L-R-V] (cyclo(GRLRWLRV[βAla]))
PPI (P. infestans [1]; 200 µM, P. infestans mycelium): 87.44% | PPI (%) ± dev. std (Solid medium) (P. infestans [1]): 87.93 ± 9.47 (b) % | Percentage Protection Index for the leaf discs (PPI), reduction in symptoms (P. infestans [2]): 90.03% | bacterial growth (OD620) (Escherichia coli DH5α): no alteration in bacterial growth | growth inhibition (OD620) (Saccharomyces cerevisiae): no growth inhibition | time of total proteolysis of the peptide (pronase [3]): 30 min | stability against proteolysis (pronase [3]): more stable against proteolysis than its linear analogues | EC50 (P. infestans [4]; [10]): 16 µM | EC99 (P. infestans [4]; [10]): 56.18 µM | PGI (%) ± dev. std (Liquid medium) (P. infestans [4]): 90.61 ± 10.87 (b) %

CC(=O)NCCC(=O)NCC(=O)N[C@@H](CCCNC(=N)N)C(=O)N[C@@H](CC(C)C)C(=O)N[C@@H](CCCNC(=N)N)C(=O)N[C@@H](Cc1c[nH]c2ccccc12)C(=O)N[C@@H](CC(C)C)C(=O)N[C@@H](CCCNC(=N)N)C(=O)N[C@H](C(N)=O)C(C)C [Ac-LP32, Ac-βA -G-R-L-R-W-L-R-V-CONH2] (Ac-[βAla]GRLRWLRV-NH2)
Disordered (%) ([5]; 10 mM phosphate buffer, pH 7): 44% | Helixes (%) ([5]; 10 mM phosphate buffer, pH 7): 5% | Sheets (%) ([5]; 10 mM phosphate buffer, pH 7): 33% | Turns (%) ([5]; 10 mM phosphate buffer, pH 7): 18% | Disordered (%) ([5]; TFE (trifluoroethanol)): 51% | Helixes (%) ([5]; TFE (trifluoroethanol)): 5% | Sheets (%) ([5]; TFE (trifluoroethanol)): 30% | Turns (%) ([5]; TFE (trifluoroethanol)): 14% | Disordered (%) [5, 11]: 47% | Helixes (%) [5, 11]: 5% | Sheets (%) [5, 11]: 30% | Turns (%) [5, 11]: 18% | isoelectric point [6]: 14 pH | net charge [6]: +3 | solubility in water [6]: good solubility in water | PPI (%) micelio (P. infestans [1]; Ala-scan of Ac-LP32, P. infestans mycelium in vitro): 70.23 ± 3.84% | time of total proteolysis of the peptide (pronase [3]): 10 min | stability against proteolysis (pronase [3]): low stability

CSCC[C@H](NC(=O)[C@H](Cc1c[nH]c2ccccc12)NC(=O)[C@H](CCCNC(=N)N)NC(=O)CCNC(C)=O)C(=O)N[C@@H](CC(C)C)C(=O)N[C@H](C(=O)N[C@@H](Cc1ccc(O)cc1)C(=O)N[C@@H](CCCNC(=N)N)C(=O)N[C@@H](CCCNC(=N)N)C(N)=O)C(C)C [Ac-LP20, Ac-βA -R-W-M-L-V-Y-R-R-CONH2] (Ac-[βAla]RWMLVYRR-NH2)
Disordered (%) ([5]; 10 mM phosphate buffer, pH 7): 37% | Helixes (%) ([5]; 10 mM phosphate buffer, pH 7): 5% | Sheets (%) ([5]; 10 mM phosphate buffer, pH 7): 36% | Turns (%) ([5]; 10 mM phosphate buffer, pH 7): 22% | Disordered (%) ([5]; MES buffer 10 mM, pH 6): 33% | Helixes (%) ([5]; MES buffer 10 mM, pH 6): 6% | Sheets (%) ([5]; MES buffer 10 mM, pH 6): 40% | Turns (%) ([5]; MES buffer 10 mM, pH 6): 21% | Disordered (%) ([5]; TFE (trifluoroethanol)): 31% | Helixes (%) ([5]; TFE (trifluoroethanol)): 19% | Sheets (%) ([5]; TFE (trifluoroethanol)): 27% | Turns (%) ([5]; TFE (trifluoroethanol)): 23% | Disordered (%) ([5]; acetate buffer 10 mM, pH 5): 36% | Helixes (%) ([5]; acetate buffer 10 mM, pH 5): 7% | Sheets (%) ([5]; acetate buffer 10 mM, pH 5): 35% | Turns (%) ([5]; acetate buffer 10 mM, pH 5): 22% | Disordered (%) [5, 11]: 29% | Helixes (%) [5, 11]: 18% | Sheets (%) [5, 11]: 29% | Turns (%) [5, 11]: 24% | isoelectric point [6]: 12.4 pH | net charge [6]: +3 | solubility in water [6]: good solubility in water | PPI (%) mycelium (P. infestans [1]; Ala-scan of Ac-LP20 and CP20-Met-Ala, P. infestans mycelium in vitro): 78.80 ± 4.07% | time of total proteolysis of the peptide (pronase [3]): 10 min | stability against proteolysis (pronase [3]): Low stability

C#CCOc1ccc(CCNC(=O)C(OCC#C)c2ccc(Cl)cc2)cc1OC (stereo not shown) [Mandipropamid, mandipropamid]
PPI (%) ± dev. std (Solid medium) (P. infestans [7]): 100.00 ± 0 (a) % | PGI (%) ± dev. std (Liquid medium) (P. infestans [8]): 100.00 ± 0 (a) % | P. capsici (PIC - %) (P. capsici): 100 ± 0 (a) % | P. viticola (IPP - %) (P. viticola): 100 ± 0 (a) %

Ac-[βAla]RWMLVYRR-NH2
cleaved bond (pronase [9]): Met4-Leu, first_seen, t0; also recorded: Arg2-Trp3, 10 min; also recorded: Trp3-Met4, 10 min

CSCC[C@@H]1NC(=O)[C@H](Cc2c[nH]c3ccccc23)NC(=O)[C@H](CCCNC(=N)N)NC(=O)CCNC(=O)[C@H](CCCNC(=N)N)NC(=O)[C@H](CCCNC(=N)N)NC(=O)[C@H](Cc2ccc(O)cc2)NC(=O)[C@H](C(C)C)NC(=O)[C@H](CC(C)C)NC1=O [CP20, βA-R-W-M-L-V-Y-R-R] (cyclo(LVYRR[βAla]RWM))
PPI (%) ± Std. Dev. (P. infestans [1]; 200 µM, P. infestans mycelium, peptidomimetics): 92.39 ± 2.17 (a) % | PPI (P. infestans [1]; 200 µM, P. infestans mycelium): 89.53% | PPI (%) ± dev. std (Solid medium) (P. infestans [1]): 88.99 ± 7.56 (b) % | Percentage Protection Index for the leaf discs (PPI), reduction in symptoms (P. infestans [2]): 88.64% | bacterial growth (OD620) (Escherichia coli DH5α): no alteration in bacterial growth | growth inhibition (OD620) (Saccharomyces cerevisiae): no growth inhibition | time after which cleavage was observed in the presence of protease (pronase [3]): 2 h | stability against proteolysis (pronase [3]): good stability against proteolysis | EC99 (P. infestans [4]; [10]): 68.37 µM | PGI (%) ± dev. std (Liquid medium) (P. infestans [4]): 86.19 ± 8.66 (b) %

COCC(=O)N(c1c(C)cccc1C)[C@H](C)C(=O)OC [Metalaxyl-M]
P. ultimum (IPP - %) (P. ultimum): 100 ± 0 (a) %

[βAla]GRLRWLRV [LP32]
cleaved bond (pronase [9]): Trp-Leu7, first_seen, immediately, after mixing protease with peptide solution; also recorded: Leu4-Arg5, 10 min; also recorded: Arg5-Trp, 10 min; also recorded: Leu7-Arg8, 10 min; also recorded: Arg8-Val, 10 min

[βAla]GRLRWLRV [CP32]
cleaved bond (pronase [9]): βAla-Gly, first_seen, After mixing protease with peptide solution; also recorded: Leu7-Arg8, first_seen, After mixing protease with peptide solution; also recorded: Arg8-Val; also recorded: Leu4-Arg5, 10 minutes; also recorded: Arg5-Trp, 10 minutes; also recorded: Trp-Leu7, 10 minutes

[βAla]RWMLVYRR [CP20]
cleaved bond (pronase [9]): Arg8-Arg9, 2 hours; also recorded: Met4-Leu, 2 hours
